Data reported in paper PMC10609854 (Pharmaceuticals, 2023).
pIC50, pKi: −log10 of the molar value.

Assays:
human sigma 1 receptor = target: T1, human sigma 1 receptor (Homo sapiens, UniProt Q99720); assay: radioligand binding, human sigma 1 receptor ([3H](+)pentazocine, Jurkat cells)
T1 construct: [^3H](+)pentazocine (agonist) in Jurkat cells; host or cells: Jurkat cells

[1] = target: T2, human kappa opioid receptor (Homo sapiens, UniProt P41145); assay: radioligand binding, human opioid kappa receptor ([3H]U69593, RBL cells)
T2 construct: host or cells: RBL cells
T2 sequence (P41145 whole entry): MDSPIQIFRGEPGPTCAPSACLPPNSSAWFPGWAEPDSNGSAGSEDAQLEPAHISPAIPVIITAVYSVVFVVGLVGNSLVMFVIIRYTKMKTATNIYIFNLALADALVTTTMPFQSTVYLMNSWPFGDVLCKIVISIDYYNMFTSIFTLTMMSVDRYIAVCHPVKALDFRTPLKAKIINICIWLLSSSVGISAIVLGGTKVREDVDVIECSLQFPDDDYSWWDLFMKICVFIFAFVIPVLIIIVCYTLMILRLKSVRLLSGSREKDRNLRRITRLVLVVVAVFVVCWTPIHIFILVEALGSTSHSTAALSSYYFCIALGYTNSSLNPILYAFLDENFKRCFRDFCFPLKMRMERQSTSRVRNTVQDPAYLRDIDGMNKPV

in vivo = conditions: mouse
Description: The compound was administered at a dose of 5 mg/kg i.v. and at two doses (5 and 15 mg/kg) i.p. Before the dose (time 0) and up to 8 h at different time points following compound administration, three to five mice per time point were exsanguinated while under light ketamine/xylazine anesthesia. Blood and brains were harvested to the last measured point, whereas liver, kidneys, and lungs were collected at 0.25, 0.5, and 1 h. Serum and tissues were stored at −80 °C until assayed.
Tissues (liver, kidney, brain, and lung) were homogenized with water in a 1:5 ratio (w/v). Prior to the extraction, 100 μL of the plasma samples or 500 μL of tissue homogenates containing calibrators or authentic samples were spiked with 10 μL of IS working solution in a snap-cap microcentrifuge tubes and vortexed (Reax top, Heidolph, Schwabach, Germany) for 15 s. The serum and tissue samples were then alkalized with, respectively, 20 μL or 50 μL of 4 M sodium hydroxide solution, mixed briefly on the vortex mixer, and extracted with 1 mL of ethyl acetate/hexane (30:70, v/v) mixture by mixing for 20 min on a shaker (VXR Vibrax, IKA, Staufen, Germany). Then samples were centrifuged (EBA 12 R, Hettich, Germany) at 8000 g for 15 min and the organic layer of each sample was transferred to a new snap-cap microcentrifuge tube containing 200 μL of a methanol/0.1 M sulfuric acid mixture (1:9, v/v). Subsequently the samples were vortexed (20 min) and centrifuged again (8000 g, 15 min). Finally, the organic layer was discarded and 10–50 μL of the acidic layer was transferred to the autosampler vials (4 °C).
The HPLC system (LaChrom Elite, Merck Hitachi) consisted of the following components: an L-2130 pump, an L-2200 autosampler with a 100 μL sample loop, an L-2350 oven, and an L-2485 fluorescence detector. Excitation and emission wavelengths were set to 260 nm and 330 nm, respectively. Analysis was performed at a temperature of 25 °C on a 250 mm × 4 mm LiChrospher 100 RP-18 column from Merck Millipore (Germany), filled with 5 μm particles, protected with LiChroCART precolumn (10 μm particle size). The mobile phase containing acetonitrile and 20 mM potassium dihydrogen phosphate buffer (pH 4.5) in a 7:3 (v/v) ratio was filtered through the 0.45 µm membrane filter (Supelco Inc., Mainz, Germany) before use and pumped at a flow rate of 1.5 mL/min. […] The method was validated for serum, brain, liver kidney, and lungs.
Both one- and two-compartment pharmacokinetic models were tested. Bioavailability was estimated as a model parameter (F). […] The maximum concentration (Cmax) and the time to reach peak concentration (tmax) were obtained directly from the concentration–time data. The terminal elimination rate constant (λz) was assessed using linear regression. Terminal half-life (t0.5λz) was calculated as ln2/λz. The area under the concentration–time curve from 0 to last measured point (AUC0–last) was calculated using the linear trapezoidal rule. Non-compartmental and model-dependent analyses were performed using Phoenix WinNonlin version 6.3 (Pharsight Corp., Mountain View, CA, USA). The final pharmacokinetic model was selected on the basis of visual inspection of the fitting, examination of residuals, parameter precision, Akaike Information Criteria, and Schwarz Criteria.

formalin-induced pain = assay: formalin test; assay type: in vivo, mice
Description: The mice received an intraperitoneal (i.p.) injection of either the test compound or a control solution. After 30 min, a 20 μL injection of a 2.5% formalin solution was administered into the right hind paw. Right after the formalin injection, the animals were individually placed into glass containers and observed for the following 30 min. During specific time intervals (0–5 min, referred to as Phase I, and 15–30 min, referred to as Phase II, post-formalin injection), the time spent by the animals licking or biting the injected paw was recorded..

capsaicin-induced pain = assay: capsaicin test; assay type: in vivo; conditions: mice, all doses (10, 15 and 30 mg/kg i.p.)
Description: The mice received an intraperitoneal (i.p.) injection of either the test compound or a control solution. After 30 min, an intraplantar injection of 1.6 µg capsaicin in a 20 μL solution of 0.9% NaCl was administered to the right hind paw. Right after the capsaicin injection, the animals were individually placed into glass containers and observed for the subsequent 5 min. During this observation period, the time that each animal spent licking or biting the injected paw was recorded.

[2] = tested on: histamine-induced pruritus; assay: histamine-induced pruritus; assay type: in vivo; conditions: mice
Description: The area (around 2 cm^2) of the nape of mice was shaved at least 2 days prior to experiments. On the day of the experiment, each mouse was individually placed in plastic chambers (15 × 15 × 30 cm). After the 30 min period of habituation, the mice received an intradermal (i.d.) injection of histamine dihydrochloride (10 µmol/site), chloroquine (CQ, 200 µg/site), or SLIGRL-NH2 (40 nmol/site), which were dissolved in physiological saline and administrated at the constant volume of 20 μL. Immediately following the injection, scratching (series of movements considered as a single scratching bout usually consisted of three single scratches) of the injected site by the hind paw was counted for 60 min, 30 min, or 45 min after histamine, CQ, and SLIGRL-NH2 injection, respectively.

T1 sequence (Q99720 whole entry): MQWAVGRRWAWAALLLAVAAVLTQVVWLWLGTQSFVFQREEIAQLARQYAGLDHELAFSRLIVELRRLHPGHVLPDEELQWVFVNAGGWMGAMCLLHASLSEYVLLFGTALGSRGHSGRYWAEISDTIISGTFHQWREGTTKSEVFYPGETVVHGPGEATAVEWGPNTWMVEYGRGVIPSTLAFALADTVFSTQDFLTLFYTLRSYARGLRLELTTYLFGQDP

O=C(O)C(=O)O.c1ccc(-c2ccc(OCCCCCN3CCCCCC3)cc2)cc1 [Compound E153, 1-(5-(4-Phenylphenoxy)pentyl)azepane hydrogen oxalate]
pIC50 (human sigma 1 receptor): 8.62
pKi (human sigma 1 receptor): 8.92
inhibition at 1 µM (human sigma 1 receptor; at 1 μM): 95%
inhibition at 1 µM [1]: 52%
Vc (volume of the central compartment) (in vivo): 6.39 L/kg
half-life (in vivo): 41.6 min
k12 (first-order distribution rate constant) (in vivo): 0.33 h⁻¹
k21 (first-order distribution rate constant) (in vivo): 0.19 h⁻¹
k el (in vivo): 0.000278 s⁻¹
time of high (peak) concentrations in brain tissue (in vivo): 0.5 to 1 h
k01 (first-order absorption rate constant, ka) (in vivo; ip): 2.32 h⁻¹
Kp (in vivo; ip, 5 mg/kg): 28.5
brain t0.5λz (in vivo; ip, 5 mg/kg): 1.03 h
Kp (in vivo; ip, 15 mg/kg): 14.7
brain Cmax (in vivo; ip, 15 mg/kg): 11,682.69 ng/g
brain t0.5λz (in vivo; ip, 15 mg/kg): 1.46 h
Kp (in vivo; iv, 5 mg/kg): 15.7
Tmax (in vivo; iv, 5 mg/kg): 15 min
brain t0.5λz (in vivo; iv, 5 mg/kg): 0.90 h
highest concentration in liver (in vivo; iv, 5 mg/kg): 5.32 µg/g
highest concentration in lung tissue (in vivo; iv, 5 mg/kg): 43.13 µg/g
duration of the nociceptive response, acute phase of the formalin test (formalin-induced pain; mice, 10, 15 and 30 mg/kg i.p., 0–5 min after formalin): did not significantly affect
paw licking or biting behavior, late phase of the formalin test (formalin-induced pain; mice, all doses tested (10, 15 and 30 mg/kg i.p.), 15–30 min after formalin): significantly attenuated
paw licking or biting behavior, capsaicin test (capsaicin-induced pain): significantly decreased
activity in histamine-induced pruritus ([2]; 5 mg/kg i.p.): active
scratching behavior, histamine-induced pruritus ([2]; i.p. 30 min before i.d. histamine): significantly reduced scratching behavior
